Measured values: PubChem BioAssay (NCI)
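Test compounds were applied to cells in 96-well plates for 48 hours at 5 doses. TGI: total growth inhibition.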

Experiments:
Assay in all cases: NCI tumour cell line growth inhibition, 48 h
786-0 renal = tested on: 786-0 renal
A498 renal = tested on: A498 renal
A549 NSCLC = tested on: A549 NSCLC
ACHN renal = tested on: ACHN renal
BT-549 breast = tested on: BT-549 breast
CCRF-CEM leukemia = tested on: CCRF-CEM leukemia
COLO 205 colon = tested on: COLO 205 colon
DMS 114 small cell lung = tested on: DMS 114 small cell lung
DMS 273 small cell lung = tested on: DMS 273 small cell lung
DU-145 prostate = tested on: DU-145 prostate
EKVX NSCLC = tested on: EKVX NSCLC
HCC-2998 colon = tested on: HCC-2998 colon
HCT-116 colon = tested on: HCT-116 colon
HCT-15 colon = tested on: HCT-15 colon
HL-60(TB) leukemia = tested on: HL-60(TB) leukemia
HOP-18 NSCLC = tested on: HOP-18 NSCLC
HOP-62 NSCLC = tested on: HOP-62 NSCLC
HOP-92 NSCLC = tested on: HOP-92 NSCLC
HS 578T breast = tested on: HS 578T breast
HT29 colon = tested on: HT29 colon
IGROV1 ovarian = tested on: IGROV1 ovarian
K-562 leukemia = tested on: K-562 leukemia
KM12 colon = tested on: KM12 colon
KM20L2 colon = tested on: KM20L2 colon
LOX IMVI melanoma = tested on: LOX IMVI melanoma
LXFL 529 NSCLC = tested on: LXFL 529 NSCLC
M14 melanoma = tested on: M14 melanoma
M19-MEL melanoma = tested on: M19-MEL melanoma
MALME-3M melanoma = tested on: MALME-3M melanoma
MCF7 breast = tested on: MCF7 breast
MDA-MB-231 breast = tested on: MDA-MB-231 breast
MDA-MB-435 = tested on: MDA-MB-435
MDA-N = tested on: MDA-N
MOLT-4 leukemia = tested on: MOLT-4 leukemia
NCI-H226 lung = tested on: NCI-H226 lung
NCI-H23 lung = tested on: NCI-H23 lung
NCI-H460 lung = tested on: NCI-H460 lung
NCI-H522 lung = tested on: NCI-H522 lung
NCI/ADR-RES ovarian = tested on: NCI/ADR-RES ovarian
OVCAR-3 ovarian = tested on: OVCAR-3 ovarian
OVCAR-4 ovarian = tested on: OVCAR-4 ovarian
OVCAR-5 ovarian = tested on: OVCAR-5 ovarian
OVCAR-8 ovarian = tested on: OVCAR-8 ovarian
PC-3 prostate = tested on: PC-3 prostate
RPMI-8226 leukemia = tested on: RPMI-8226 leukemia
RXF 393 renal = tested on: RXF 393 renal
SF-268 CNS = tested on: SF-268 CNS
SF-295 CNS = tested on: SF-295 CNS
SK-MEL-2 melanoma = tested on: SK-MEL-2 melanoma
SK-MEL-28 melanoma = tested on: SK-MEL-28 melanoma
SK-MEL-5 melanoma = tested on: SK-MEL-5 melanoma
SK-OV-3 ovarian = tested on: SK-OV-3 ovarian
SN12C renal = tested on: SN12C renal
SNB-19 CNS = tested on: SNB-19 CNS
SNB-75 CNS = tested on: SNB-75 CNS
SNB-78 CNS = tested on: SNB-78 CNS
SR leukemia = tested on: SR leukemia
SW-620 colon = tested on: SW-620 colon
T-47D breast = tested on: T-47D breast
TK-10 renal = tested on: TK-10 renal
U251 CNS = tested on: U251 CNS
UACC-257 melanoma = tested on: UACC-257 melanoma
UACC-62 melanoma = tested on: UACC-62 melanoma
UO-31 renal = tested on: UO-31 renal
XF 498 CNS = tested on: XF 498 CNS
CAKI-1 renal = tested on: CAKI-1 renal
DLD-1 colon = tested on: DLD-1 colon
SF-539 CNS = tested on: SF-539 CNS

COc1ccc(NC(=O)CSc2nnc(-c3ccc(N=Cc4ccc(Cl)cc4)cc3)o2)cc1 showed a TGI (786-0 renal) of over 100 µM, a TGI (A498 renal) of over 100 µM and a TGI (A549 NSCLC) of over 100 µM. It also gave a TGI (ACHN renal) of over 86.9 µM, a TGI (BT-549 breast) of over 100 µM and a TGI (CCRF-CEM leukemia) of over 82.7 µM. The TGI (COLO 205 colon) was 44.9 µM, the TGI (DMS 114 small cell lung) was 80.1 µM and the TGI (DMS 273 small cell lung) was 79.6 µM. It also gave a TGI (DU-145 prostate) of over 100 µM, a TGI (EKVX NSCLC) of over 100 µM and a TGI (HCC-2998 colon) of over 100 µM. It also gave a TGI (HCT-116 colon) of over 49.5 µM, a TGI (HCT-15 colon) of 29.1 µM and a TGI (HL-60(TB) leukemia) of over 48.8 µM. For the same compound, the TGI (HOP-18 NSCLC) was 68.1 µM, the TGI (HOP-62 NSCLC) was over 88.6 µM and the TGI (HOP-92 NSCLC) was 71.4 µM. It also gave a TGI (HS 578T breast) of over 100 µM, a TGI (HT29 colon) of over 100 µM and a TGI (IGROV1 ovarian) of over 100 µM. For the same compound, the TGI (K-562 leukemia) was over 100 µM, the TGI (KM12 colon) was over 80.9 µM and the TGI (KM20L2 colon) was over 100 µM. It also gave a TGI (LOX IMVI melanoma) of 31.9 µM, a TGI (LXFL 529 NSCLC) of over 100 µM and a TGI (M14 melanoma) of over 96.3 µM. The TGI (M19-MEL melanoma) was 68.1 µM, the TGI (MALME-3M melanoma) was over 100 µM and the TGI (MCF7 breast) was over 100 µM. The TGI (MDA-MB-231 breast) was over 100 µM, the TGI (MDA-MB-435) was over 100 µM and the TGI (MDA-N) was over 100 µM. The TGI (MOLT-4 leukemia) was over 70.2 µM, the TGI (NCI-H226 lung) was over 76.3 µM and the TGI (NCI-H23 lung) was over 93.5 µM. For the same compound, the TGI (NCI-H460 lung) was over 100 µM, the TGI (NCI-H522 lung) was 96.6 µM and the TGI (NCI/ADR-RES ovarian) was over 100 µM. For the same compound, the TGI (OVCAR-3 ovarian) was 73.2 µM, the TGI (OVCAR-4 ovarian) was over 100 µM and the TGI (OVCAR-5 ovarian) was over 100 µM. The TGI (OVCAR-8 ovarian) was over 100 µM, the TGI (PC-3 prostate) was over 100 µM and the TGI (RPMI-8226 leukemia) was over 80.7 µM. The TGI (RXF 393 renal) was over 100 µM, the TGI (SF-268 CNS) was over 64.7 µM and the TGI (SF-295 CNS) was over 100 µM. It also gave a TGI (SK-MEL-2 melanoma) of 45.8 µM, a TGI (SK-MEL-28 melanoma) of over 100 µM and a TGI (SK-MEL-5 melanoma) of over 100 µM. For the same compound, the TGI (SK-OV-3 ovarian) was over 100 µM, the TGI (SN12C renal) was 56.8 µM and the TGI (SNB-19 CNS) was over 100 µM. It also gave a TGI (SNB-75 CNS) of over 86.7 µM, a TGI (SNB-78 CNS) of 77.3 µM and a TGI (SR leukemia) of 61.2 µM. The TGI (SW-620 colon) was over 100 µM, the TGI (T-47D breast) was over 100 µM and the TGI (TK-10 renal) was over 100 µM. The TGI (U251 CNS) was over 100 µM, the TGI (UACC-257 melanoma) was over 96.7 µM and the TGI (UACC-62 melanoma) was over 100 µM. It also gave a TGI (UO-31 renal) of over 100 µM and a TGI (XF 498 CNS) of 59.2 µM.
COc1ccc(C2Oc3ccc(O)cc3[C@@H]2C)cc1OC (stereo not given in full) was tested, and the TGI (786-0 renal) was over 100 µM, the TGI (A549 NSCLC) was over 100 µM and the TGI (ACHN renal) was over 100 µM. It also gave a TGI (CAKI-1 renal) of over 100 µM, a TGI (CCRF-CEM leukemia) of over 100 µM and a TGI (COLO 205 colon) of over 100 µM. The TGI (DLD-1 colon) was over 100 µM, the TGI (DMS 114 small cell lung) was over 100 µM and the TGI (DMS 273 small cell lung) was over 100 µM. The TGI (EKVX NSCLC) was over 100 µM, the TGI (HCC-2998 colon) was over 100 µM and the TGI (HCT-116 colon) was over 100 µM. It also gave a TGI (HCT-15 colon) of over 100 µM, a TGI (HL-60(TB) leukemia) of over 100 µM and a TGI (HOP-18 NSCLC) of over 100 µM. For the same compound, the TGI (HOP-62 NSCLC) was over 100 µM, the TGI (HOP-92 NSCLC) was over 100 µM and the TGI (HT29 colon) was over 100 µM. It also gave a TGI (IGROV1 ovarian) of over 100 µM, a TGI (K-562 leukemia) of over 100 µM and a TGI (KM12 colon) of over 100 µM. For the same compound, the TGI (KM20L2 colon) was over 100 µM, the TGI (LOX IMVI melanoma) was over 100 µM and the TGI (LXFL 529 NSCLC) was over 100 µM. The TGI (M14 melanoma) was over 100 µM, the TGI (M19-MEL melanoma) was over 100 µM and the TGI (MALME-3M melanoma) was over 100 µM. It also gave a TGI (MOLT-4 leukemia) of over 100 µM, a TGI (NCI-H226 lung) of over 100 µM and a TGI (NCI-H23 lung) of over 100 µM. It also gave a TGI (NCI-H460 lung) of over 100 µM, a TGI (NCI-H522 lung) of over 100 µM and a TGI (OVCAR-3 ovarian) of over 100 µM. It also gave a TGI (OVCAR-4 ovarian) of over 100 µM, a TGI (OVCAR-5 ovarian) of over 100 µM and a TGI (OVCAR-8 ovarian) of over 100 µM. For the same compound, the TGI (RPMI-8226 leukemia) was over 100 µM, the TGI (RXF 393 renal) was over 100 µM and the TGI (SF-268 CNS) was over 100 µM. It also gave a TGI (SF-295 CNS) of over 100 µM, a TGI (SF-539 CNS) of over 100 µM and a TGI (SK-MEL-2 melanoma) of over 100 µM. The TGI (SK-MEL-28 melanoma) was over 100 µM, the TGI (SK-MEL-5 melanoma) was over 100 µM and the TGI (SK-OV-3 ovarian) was over 100 µM. The TGI (SNB-19 CNS) was over 100 µM, the TGI (SNB-75 CNS) was over 100 µM and the TGI (SNB-78 CNS) was over 100 µM. The TGI (SW-620 colon) was over 100 µM, the TGI (TK-10 renal) was over 100 µM and the TGI (U251 CNS) was over 100 µM. For the same compound, the TGI (UACC-257 melanoma) was over 100 µM, the TGI (UACC-62 melanoma) was over 100 µM and the TGI (UO-31 renal) was over 100 µM. For the same compound, the TGI (XF 498 CNS) was over 100 µM.
